One data set has as its system BMI1. The experiment in a line: Western immunoblot analysis of miR-194 target BMI1 expression. It is filed as cell-based, human. The following applies: 50 nM. As to the method: (§1) Cell culture. The human pancreatic cancer cell lines ASPC-1, HS766T, and Panc-1, were obtained from the American Type Culture Collection (ATCC) and maintained in various types of media. Specifically, HS766T and PANC1 cells were cultured in DMEM containing media, and APSC-1 cells were maintained in RPMI medium (Thermo Fischer). Media was supplemented with 10% fetal bovine serum (Thermo Fischer).
(§2) Western immunoblot analysis. Twenty-four hours prior to transfection 1×10^5 cells were plated in 6 well plates. Cells were either transfected using Oligofectamine (Thermo Fischer) or no transfection vehicle, with 50 nM control miRNA (Thermo Fischer), miR-194 or one of the three miR-194 mimics. Three days following transfection protein was collected in RIPA buffer with protease inhibitor (Sigma). Equal amounts of protein (15 μg), were separated on 10% sodium dodecyl sulfate-polyacrylamide gels as described in Laemmli U K. Nature. 1970; 227(5259) pp. 680-685, the entire contents of which is incorporated herein by reference. Proteins were probed with anti-SET8 or BMI-1 (1:500) (Cell Signaling Technologies) and anti-GAPDH (1:100000) antibodies. Horseradish peroxidase conjugated antibodies against mouse or rabbit (1:5000, Santa Cruz Biotech Inc.) were used as the secondary antibodies. Protein bands were visualized with autoradiography film using SuperSignal West Pico Chemiluminescent Substrate (Thermo Fischer).

The test system of data set [1] is PANC1 pancreatic cancer cells. Briefly: Cell viability assay (WST-1) in PANC1 pancreatic cancer cells. Type of data set: cell-based, human. To be noted: for IC50: WST-1 dye 6 days after treatment, calculated using CompuSyn. On the procedure:
as §1
(§3) Cell viability assay. Cells were plated 1000 cells per well in 96 well plates. Twenty four hours later cell media was changed to media supplemented with DFBS, with 50, 25, 12.5, 6.25, 3.125 or 1.5625 nM of Control miRNA (Thermo Fischer), miR-194, 5-FU-miR-194, Gem-mIR-194 or 5-FU-Gem-miR-194. 24 hours later media was changed again to fresh media supplemented with DFBS. 6 days after treatment cell number was assessed using WST-1 dye (Roche). Cells were incubated with 10 μl of WST-1 dye per 100 μl of media for 1 hour and absorbance was read at 450 and 630 nm. The optical density (O.D.) was calculated by subtracting the absorbance at 630 nm from that at 450 nm. IC^50 values were calculated using CompuSyn software (ComboSyn, Inc).

The next data set concerns SET8. Briefly: Western immunoblot analysis of miR-194 target SET8 expression. Type of data set: cell-based, human. To be noted: 50 nM. As to the method: as §1, §2
(A western blot detects proteins with antibodies after separation by electrophoresis.)

The nature of data set [2]: Toxicity in mice treated in the pancreatic cancer metastasis model. Type of data set: in vivo. The following applies: mouse; 80 μg intravenous injection every other day for two weeks. As to the method:
(§4) Mouse subcutaneous tumor implantation model. For in vivo miRNA delivery experiments, pancreatic cancer cells were created that expressed the lenti-luc reporter gene by infecting parental pancreatic cancer cells with a recombinant lentivirus. Luciferase-expressing HS766T cells (2.0×10^6 cells per mouse) were suspended in 0.1 mL of PBS solution and was injected through tail vein of each mouse. Four days after injection of pancreatic cancer cells, mice were treated via tail vein injection with 80 μg of negative control or modified miR(s) packaged with in vivo-jet PEI (Polyplus Transfection). Mice were treated every other day for 2 weeks (8 times). Following treatment, mice were screened using IVIS Spectrum In vivo Imaging System (IVIS) (PerkinElmer).

Data set [3] relates to HS766T pancreatic cancer cells. Briefly: Cell viability assay (WST-1) in HS766T pancreatic cancer cells. It is filed as cell-based, human. The following applies: for IC50: WST-1 dye 6 days after treatment, calculated using CompuSyn. On the procedure: as §1, §3
The subject of data set [4] is Luciferase-expressing HS766T cells. The experiment in a line: Pancreatic cancer metastasis mouse model (tail vein injection, IVIS imaging). It is filed as in vivo. To be noted: 80 μg intravenous injection every other day for two weeks, started four days after establishing metastasis, versus negative control microRNA. As to the method: as §4
Data set [5] concerns ASPC1 pancreatic cancer cells. Briefly: Cell viability assay (WST-1) in ASPC1 pancreatic cancer cells. Type of data set: cell-based, human. The following applies: for IC50: WST-1 dye 6 days after treatment, calculated using CompuSyn. As to the method: as §1, §3
The mark [6] stands for this setting: no transfection vehicle, three days, FIG. 2D.
The mark [7] stands for this setting: in the presence of a transfection agent (Oligofectamine), three days following transfection, FIG. 2C.
The mark [8] stands for this setting: in the presence of a transfection agent (Oligofectamine), three days following transfection, FIG. 2A.
Setting [9] is: no transfection vehicle, three days, FIG. 2B.

In general, IC50 refers to the point on the concentration scale where inhibition reaches its midpoint.

Several values for one entry are separate records, joined by “and”; a condition that tells them apart may be missing. Equal values may be shown once. Entries after “also recorded” stand apart in the source; their conditions may differ.

Take “miR-194: unmodified (native) miR-194 sequence UGUAACAGCAACUCCAUGUGGA [SEQ ID NO. 1] (unmodified RNA; listed as Homo sapiens) [reference compound]”: the “BMI1 protein expression (Western blot)” value in the data set with BMI1 (setting [6]) is recorded as “unable to inhibit target expression”.

As for “Gem-miR-194: modified miR-194, all 5 cytosine bases in the guide strand replaced by gemcitabine: UGUAANAGNAANUNNAUGUGGA [SEQ ID NO. 2], N is gemcitabine (cytosines replaced by gemcitabine, chemistry not fully specified)”, the “pancreatic cancer cell viability (in words)” value was “reduce pancreatic cancer cell viability” in data set [1] (1.5625-50 nM, FIG. 3B); “reduce pancreatic cancer cell viability” in data set [3] (1.5625-50 nM, FIG. 3C); “reduce pancreatic cancer cell viability” in data set [5] (1.5625-50 nM, FIG. 3A). For the same substance, the IC50 in data set [1] is 1.92 nM; in data set [3], 3.57 nM; in data set [5], 4.29 nM. Moreover, the “BMI1 protein expression (Western blot)” value with BMI1 (setting [7]) is “more potent than unmodified (control) miR-194; also recorded: inhibit SET8 and BMI1”; in the data set with BMI1 (setting [6]), “retain the ability to inhibit; also recorded: inhibit SET8 and BMI1”. Besides, the “SET8 protein expression (Western blot)” value is “more potent than unmodified (control) miR-194; also recorded: inhibit SET8 and BMI1” in the data set with SET8 (setting [8]); “retain the ability to inhibit SET8; also recorded: inhibit SET8 and BMI1” in the data set with SET8 (setting [9]). Further, the “toxicity in treated mice” value in data set [2] was “did not exhibit any toxicity”. Moreover, the “metastatic pancreatic cancer growth” value was “able to inhibit metastatic pancreatic cancer growth compared to control” in data set [4] (FIG. 4); “inhibiting tumor growth in vivo” in data set [4] (FIG. 4, listed as SEQ ID NO: 2); “able to inhibit metastatic pancreatic cancer growth compared to control” in data set [4] (FIG. 4, listed as SEQ ID NOs: 2).

With “5-FU-miR-194 (NGNAACAGCAACNCCANGNGGA; 5-FU replacing U; fluorouracil modified miR-194 with a fluorouracil molecule at positions 1, 3, 13, 17 and 19; (1)..(1) N is Fluorouracil molecule; (3)..(3) N is Fluorouracil molecule; (13)..(13) N is Fluorouracil molecule; (17)..(17) N is Fluorouracil molecule; (19)..(19) N is Fluorouracil molecule)”, the concentration for half-maximal inhibition (IC50) in data set [1] is 16 nM and 16.7 nM; in data set [3] it was 26.4 nM; in data set [5], 6.06 nM. The “BMI1 protein expression (Western blot)” value in the data set on BMI1 (setting [7]) is “more potent than unmodified (control) miR-194”; in the data set with BMI1 (setting [6]), “retain the ability to inhibit”. For the same substance, the entries for the “SET8 protein expression (Western blot)” value in the data set on SET8 (setting [8]) and in the data set with SET8 (setting [9]) were “more potent than unmodified (control) miR-194” and “retain the ability to inhibit SET8”, respectively.

Source of the values: patent US20220145304A1, “MODIFIED MICRORNAS AND THEIR USE IN THE TREATMENT OF CANCER” (The Research Foundation for The State University of New York, priority 2019, published 2022).
